Data published in US6531453B1, “NKT cell activators containing α-glycosylceramides” (Kirin Beera Kabushiki Kaisha, priority 1997, dated 2003).

Columns and labels:
[1] = test system: C57BL/6 mice with MOG-induced EAE; experiment: Suppression of the onset of experimental autoimmune encephalomyelitis (EAE); assay type: in vivo, mouse; settings: 20 μg/kg i.p. on days 1, 5, 8, 12 and 15, FIG. 6B
Experimental: […]. Mice were immunized by subcutaneously injecting this emulsion on day 0 and day 7. Further, 500 ng of pertussis toxin were intraperitoneally administered on day 1 and […] induce experimental autoimmune encephalomyelitis (EAE) in mice. The animals were divided into 2 groups, i.e., a group to which 20 μg/kg of KRN 7000 were intraperitoneally administered on days 1, 5, 8, 12 and 15 and a group to which a vehicle (0.5%, Polysolvate 20) was administered in a similar manner. The level of EAE symptoms was observed every day.

NOD/ShiJic (NOD) mice = experiment: Suppression of spontaneous diabetes onset in NOD mice; assay type: in vivo, mouse; settings: 100 μg/kg i.p. twice a week from 7 weeks of age; control 80%, FIG. 7
Experimental: Ten animals per group of NOD/ShiJic (NOD) mice (6-week-old, females) (Japan Clea, Inc.) were used for the following experiment. […] The animals were divided into two groups, i.e., one group to which 100 μg/kg of KRN 7000 were intraperitoneally administered twice a week starting from 7-weeks of age, and an untreated control group. The presence and absence of diabetic symptoms was examined every week. The blood glucose level was measured using a glucometer (Miles Sankyo), and mice showing the value of more than 200 mg/dL twice consecutively were diagnosed to be diabetic.

[2] = test system: Vα14+ NKT-deficient (Jα281KO) mice; experiment: Induction of abortion in Vα14+ NKT-deficient (Jα281KO) mice; assay type: in vivo, mouse; settings: same amount, same manner, PBS group 5.0%
Experimental: (§1) C57BL/6 mice (Japan SLC) were used for the following experiment. The day when a vaginal plug was observed was defined as day 0. Pregnant mice were divided into 2 groups (6 mice per group), i.e., one group to which 150 μg/kg of KRN 7000 were intravenously administered on days 7, 8 and 9, and another to which PBS (phosphate-buffered saline) was administered in the same way. On day 12, the uterus was removed to observe the state of the embryo.
When the same amount of KRN 7000 was administered to Vα14^+ NKT-deficient (Jα281KO) mice (Kawano, T. et al., Science, 278, 1626-1629 (1997)) in the same manner, the abortion rate was 5.3%, which was equivalent to that for the PBS-administered group (5.0%). The Vα14^+ NKT-deficient mice are available from Masaru Taniguchi, School of Medicine, Chiba University.

pregnant C57BL/6 mice = experiment: Induction of abortion in pregnant C57BL/6 mice; assay type: in vivo, mouse
Experimental: as §1

[3] = test system: spleen cells of RAG-1KO/Vα14tg/Vβ8.2tg mice (NKT cells); experiment: Stimulation of NKT cell proliferation, [3H]thymidine incorporation in spleen cells; assay type: cell-based, mouse; settings: 2 days incubation
Experimental: Stimulation of NKT cell proliferation by compounds having an α-glycosylceramide structure was studied using spleen cells of RAG-1KO/Vα14tg/Vβ8.2tg mice shown in Pharmacological Test Example 1.
Spleen cells were prepared from the spleen of RAG-1KO/Vα14tg/Vβ8.2tg mice by conventional methods. These spleen cells were suspended at 2×10^6 cells/ml in an RPMI 1640 medium supplemented with 10% FCS, and 100 μl each of the suspension were plated into wells of 96-well round-bottomed plates. Ten different kinds of compounds having an α-glycosylceramide structure shown in FIG. 12 were added to the wells of the plates at a final concentration of 1, 10 or 100 ng/ml, and the plates were incubated for 2 days. Sixteen hours after the addition of [^3H] thymidine (0.5 μCi/well), the cells were harvested. The amount of [^3H] thymidine incorporated into the cells was measured by a liquid scintillation counter.

[4] = Acute toxicity test by a single administration; assay type: in vivo; settings: mouse, in vivo, 10 mg/kg; intravenous, single administration, mice
Description: (§2) The compound of Example 1 was intravenously administered to mice.

mice = experiment: Acute toxicity test by a single administration; assay type: in vivo; settings: intravenous, 10 mg/kg
Description: as §2

With `CCCCCCCCCCCCCCCCCCCCCCCCCC(=O)N[C@@H](CO[C@H]1O[C@H](CO)[C@H](O)[C@H](O)[C@H]1O)[C@H](O)[C@H](O)CCCCCCCCCCCCCC` [KRN 7000, (2S,3S,4R)-1-(α-D-galactopyranosyloxy)-2-hexacosanoylamino-3,4-octadecanediol] the “mice that died of EAE” value ([1]; 10 mice, vehicle: 80% died) was 2, the “mice showing the EAE onset” value ([1]; vehicle: all mice) was 4 out of 10 and the “mice that became diabetic at the age of 35 weeks” value (NOD/ShiJic (NOD) mice) was “none”. For the same molecule, the abortion rate [2] was 5.3%, the “embryos dead and resorbed” value (pregnant C57BL/6 mice; 150 μg/kg i.v. on days 7, 8 and 9, uterus on day 12, of the total of 36 embryos) was 12 and the abortion rate (pregnant C57BL/6 mice; 150 μg/kg i.v. on days 7, 8 and 9, PBS group 5.6%) was 33%. For the same molecule, the “[3H] Thymidine incorporation (cpm)” value ([3]; 1 ng/ml, vehicle 2090) was 40064 cpm, the “[3H] Thymidine incorporation (cpm)” value ([3]; 10 ng/ml, vehicle 2056) was 74669 cpm and the “[3H] Thymidine incorporation (cpm)” value ([3]; 100 ng/ml, vehicle 2014) was 102543 cpm. The LD50 [4] was over 10 mg/kg and the toxicity symptoms (mice) was “no particular symptom”.
